Measurements: the supplement of paper PMC10307832

How the values were obtained:
Assay in all cases: relative viability (nuclei count vs DMSO), 5 days (fraction); higher = more cells survive
NCI-H1734 = test system: NCI-H1734
Procedure, shortened: (§1)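 One day after seeding in 1536-well plates, lung cancer cell lines were dosed by pin tool. Dosing was either single-drug or a fixed anchor-drug dose plus five library-drug doses (not always all listed) in √10 steps. After 5 days, nuclei were stained in one fix-and-stain step and counted on 4× images, and relative viability is the nuclei count of treated wells over that of vehicle wells, given as the median of duplicate plates.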

NCI-H2228 = test system: NCI-H2228
Procedure, shortened: as §1

NCI-H23 = test system: NCI-H23
Procedure, shortened: as §1

LC-2-ad = test system: LC-2-ad
Procedure, shortened: as §1

NCI-H1993 = test system: NCI-H1993
Procedure, shortened: as §1

SK-LU-1 = test system: SK-LU-1
Procedure, shortened: as §1

NCI-H2009 = test system: NCI-H2009
Procedure, shortened: as §1

EMC-BAC-2 = test system: EMC-BAC-2
Procedure, shortened: as §1

HCC-78 = test system: HCC-78
Procedure, shortened: as §1

ABC-1 = test system: ABC-1
Procedure, shortened: as §1

HCC-366 = test system: HCC-366
Procedure, shortened: as §1

ChaGo-K-1 = test system: ChaGo-K-1
Procedure, shortened: as §1

COR-L23 = test system: COR-L23
Procedure, shortened: as §1

A-427 = test system: A-427
Procedure, shortened: as §1

HARA = test system: HARA
Procedure, shortened: as §1

HCC-15 = test system: HCC-15
Procedure, shortened: as §1

NCI-H2405 = test system: NCI-H2405
Procedure, shortened: as §1

NCI-H838 = test system: NCI-H838
Procedure, shortened: as §1

UMC-11 = test system: UMC-11
Procedure, shortened: as §1

NCI-H2023 = test system: NCI-H2023
Procedure, shortened: as §1

NCI-H1650 = test system: NCI-H1650
Procedure, shortened: as §1

SMILES: COc1cc(N2CCC(C(N)=O)CC2)ccc1Nc1nc(N)c(Cl)c(Nc2ccccc2S(=O)(=O)C(C)C)n1 [HG-5-88-01] + CC(C)C[C@H](NC(=O)[C@H](Cc1ccccc1)NC(=O)c1cnccn1)B(O)O [Bortezomib] (partner 0.002 µM)
- relative viability (NCI-H1734; first compound 0.04 µM): 0.899
- relative viability (NCI-H1734; first compound 0.1265 µM): 0.975
- relative viability (NCI-H1734; first compound 0.4 µM): 0.958
- relative viability (NCI-H1734; first compound 1.265 µM): 0.868
- relative viability (NCI-H1734; first compound 4 µM): 0.83
- relative viability (NCI-H2228; first compound 0.04 µM): 0.363
- relative viability (NCI-H2228; first compound 0.1265 µM): 0.478
- relative viability (NCI-H2228; first compound 0.4 µM): 0.292
- relative viability (NCI-H2228; first compound 1.265 µM): 0.255
- relative viability (NCI-H2228; first compound 4 µM): 0.345
- relative viability (NCI-H23; first compound 0.04 µM): 0.954
- relative viability (NCI-H23; first compound 0.1265 µM): 1.02
- relative viability (NCI-H23; first compound 0.4 µM): 0.91
- relative viability (NCI-H23; first compound 1.265 µM): 1.12
- relative viability (NCI-H23; first compound 4 µM): 0.629
- relative viability (LC-2-ad; first compound 0.04 µM): 1.06
- relative viability (LC-2-ad; first compound 0.1265 µM): 1.04
- relative viability (LC-2-ad; first compound 0.4 µM): 0.945
- relative viability (LC-2-ad; first compound 1.265 µM): 0.973
- relative viability (LC-2-ad; first compound 4 µM): 0.819
- relative viability (NCI-H1993; first compound 0.04 µM): 1.08
- relative viability (NCI-H1993; first compound 0.1265 µM): 1.08
- relative viability (NCI-H1993; first compound 0.4 µM): 0.971
- relative viability (NCI-H1993; first compound 1.265 µM): 0.819
- relative viability (NCI-H1993; first compound 4 µM): 1.02
- relative viability (SK-LU-1; first compound 0.04 µM): 0.976
- relative viability (SK-LU-1; first compound 0.1265 µM): 1.2
- relative viability (SK-LU-1; first compound 0.4 µM): 1.07
- relative viability (SK-LU-1; first compound 1.265 µM): 0.973
- relative viability (SK-LU-1; first compound 4 µM): 0.336
- relative viability (NCI-H2009; first compound 0.04 µM): 0.99
- relative viability (NCI-H2009; first compound 0.1265 µM): 1.19
- relative viability (NCI-H2009; first compound 0.4 µM): 0.845
- relative viability (NCI-H2009; first compound 1.265 µM): 0.986
- relative viability (NCI-H2009; first compound 4 µM): 0.765
- relative viability (EMC-BAC-2; first compound 0.04 µM): 1.07
- relative viability (EMC-BAC-2; first compound 0.1265 µM): 1.06
- relative viability (EMC-BAC-2; first compound 0.4 µM): 1.04
- relative viability (EMC-BAC-2; first compound 1.265 µM): 1.09
- relative viability (EMC-BAC-2; first compound 4 µM): 0.931
- relative viability (HCC-78; first compound 0.04 µM): 0.467
- relative viability (HCC-78; first compound 0.1265 µM): 0.369
- relative viability (HCC-78; first compound 0.4 µM): 0.393
- relative viability (HCC-78; first compound 1.265 µM): 0.218
- relative viability (HCC-78; first compound 4 µM): 0.211
- relative viability (ABC-1; first compound 0.04 µM): 0.335
- relative viability (ABC-1; first compound 0.1265 µM): 0.332
- relative viability (ABC-1; first compound 0.4 µM): 0.237
- relative viability (ABC-1; first compound 1.265 µM): 0.321
- relative viability (ABC-1; first compound 4 µM): 0.283
- relative viability (HCC-366; first compound 0.04 µM): 1.11
- relative viability (HCC-366; first compound 0.1265 µM): 1.09
- relative viability (HCC-366; first compound 0.4 µM): 0.972
- relative viability (HCC-366; first compound 1.265 µM): 1.04
- relative viability (HCC-366; first compound 4 µM): 1.24
- relative viability (ChaGo-K-1; first compound 0.04 µM): 1.11
- relative viability (ChaGo-K-1; first compound 0.1265 µM): 0.983
- relative viability (ChaGo-K-1; first compound 0.4 µM): 0.976
- relative viability (ChaGo-K-1; first compound 1.265 µM): 1.02
- relative viability (ChaGo-K-1; first compound 4 µM): 0.785
- relative viability (COR-L23; first compound 0.04 µM): 1.06
- relative viability (COR-L23; first compound 0.1265 µM): 1.08
- relative viability (COR-L23; first compound 0.4 µM): 0.854
- relative viability (COR-L23; first compound 1.265 µM): 0.91
- relative viability (COR-L23; first compound 4 µM): 0.896
- relative viability (A-427; first compound 0.04 µM): 0.968
- relative viability (A-427; first compound 0.1265 µM): 0.955
- relative viability (A-427; first compound 0.4 µM): 1.01
- relative viability (A-427; first compound 1.265 µM): 1.05
- relative viability (A-427; first compound 4 µM): 0.804
- relative viability (HARA; first compound 0.04 µM): 1.16
- relative viability (HARA; first compound 0.1265 µM): 1.03
- relative viability (HARA; first compound 0.4 µM): 1.07
- relative viability (HARA; first compound 1.265 µM): 1.02
- relative viability (HARA; first compound 4 µM): 1.02
- relative viability (HCC-15; first compound 0.04 µM): 1
- relative viability (HCC-15; first compound 0.1265 µM): 1.09
- relative viability (HCC-15; first compound 0.4 µM): 0.966
- relative viability (HCC-15; first compound 1.265 µM): 1.02
- relative viability (HCC-15; first compound 4 µM): 0.746
- relative viability (NCI-H2405; first compound 0.04 µM): 1.01
- relative viability (NCI-H2405; first compound 0.1265 µM): 0.977
- relative viability (NCI-H2405; first compound 0.4 µM): 0.929
- relative viability (NCI-H2405; first compound 1.265 µM): 0.933
- relative viability (NCI-H2405; first compound 4 µM): 0.946
- relative viability (NCI-H838; first compound 0.04 µM): 0.818
- relative viability (NCI-H838; first compound 0.1265 µM): 0.645
- relative viability (NCI-H838; first compound 0.4 µM): 0.759
- relative viability (NCI-H838; first compound 1.265 µM): 0.702
- relative viability (NCI-H838; first compound 4 µM): 0.333
- relative viability (UMC-11; first compound 0.04 µM): 0.769
- relative viability (UMC-11; first compound 0.1265 µM): 0.82
- relative viability (UMC-11; first compound 0.4 µM): 0.642
- relative viability (UMC-11; first compound 1.265 µM): 0.837
- relative viability (UMC-11; first compound 4 µM): 0.494
- relative viability (NCI-H2023; first compound 0.04 µM): 1.08
- relative viability (NCI-H2023; first compound 0.1265 µM): 1.34
- relative viability (NCI-H2023; first compound 0.4 µM): 0.753
- relative viability (NCI-H2023; first compound 1.265 µM): 0.542
- relative viability (NCI-H2023; first compound 4 µM): 0.454
- relative viability (NCI-H1650; first compound 0.04 µM): 0.207
- relative viability (NCI-H1650; first compound 0.1265 µM): 0.219
- relative viability (NCI-H1650; first compound 0.4 µM): 0.195
- relative viability (NCI-H1650; first compound 1.265 µM): 0.185
- relative viability (NCI-H1650; first compound 4 µM): 0.189
